Key:
DBA/1 mice [1] = assay: Therapeutic effect on rheumatoid arthritis, CIA mouse model; format: in vivo
Procedure: The CIA mouse model is a model in which arthritis is induced by collagen in DBA/1 mice. Thus, a 1:1 mixture of collagen type 2 and CFA was intradermally (ID) injected into the base of the tail of 8-week old DBA/1 mice. Two weeks after the primary immunization, a 1:1 mixture of collagen type 2 and IFA was intradermally (ID) injected into the base of the tail. After the second immunization, the pathology was measured twice a week, and the groups were divided equally so that the mean of the pathology of each group was 4 points. From Day 35 after the primary immunization, etanercept (4.5 mpk), adalimumab (1.2 mpk), the compound of Example 61 (25 mpk, 50 mpk, or 100 mpk) were orally administered three times a week, and the pathology was measured and recorded. The pathology score was measured as 1=inflammation and swelling of one toe, 2=inflammation of one or more toes or weak swelling of the whole sole of the foot, 3=severe swelling of the whole sole of the foot and swelling of ankle, 4=very severe inflammation and swelling of the whole foot or the bending and stiffness of foot (N=7 to 9/group, *P<0.01, **P<0.005, ***P<0.001).

DBA/1 mice [2] = assay: CIA mouse model, alone and in combination with methotrexate; format: in vivo; conditions: Example 61 10 mpk PO once a day, MTX 5 mpk three times a week, to Day 73
From the text: A 1:1 mixture of collagen type 2 and CFA was intradermally (ID) injected into the base of the tail of DBA/1 mice. Two weeks after the primary immunization, a 1:1 mixture of bovine collagen type 2 and IFA (incomplete Freund's adjuvant) was intradermally (ID) injected into the base of the tail to prepare the rheumatoid arthritis animal model. The thus prepared mice were divided into […], i.e., a positive control group (MTX 5 mpk treated group: 10 mice), a group treated with the compound of Example 61 alone (10 mpk treated group: 9 mice), a group treated with MTX and the compound of Example 61 (each 5 mpk and 10 mpk; 9 mice), and a group treated with vehicle (a group treated with 0.05% CMC diluted in distilled water; 15 mice). […]
The severity of arthritis was determined by ascertaining the mean score of arthritis according to the following standard score in the forefoot and hindfoot twice a week from Day 0 to Day 73 after the primary immunization: 0=normal foot, 1=inflammation and swelling of one toe, 2=inflammation and swelling of more than one toe, but not all of the toes have inflammation and swelling, or weak swelling of all toes, 3=inflammation and swelling of all toes, and 4=severe inflammation and swelling or occlusion of foot.

TNF = TNF (Homo sapiens, UniProt P01375); assay: SPR (Biacore T200) direct binding to immobilized TNF; conditions: TNF immobilized on CM5 chip, read-out: binding affinity (KD)
Procedure: The binding kinetics of TNF and 4-benzopyranone derivative compounds was measured by Surface Plasmon Resonance (SPR) method. First, based on the results of pH scouting (10 mM acetate buffer, pH 4.0, 4.5, 5.0, and 5.5), the appropriate buffer pH was determined, and then the recombinant TNF was immobilized on the CM5 chip (4000-5000 RU). In order to correct an effect of DMSO, a solvent correction standard was then prepared, and DMSO was added to the HBS-EP+ buffer (GE) in an amount of 5%. Then, the 4-benzopyranone derivative compounds were prepared depending on concentration, flowed into the chip (20 μl/min, 500 s), and dissolved (500 s), and the results of sensorgram were analyzed by a dedicated program to determine the affinity value (KD). At this time, the running buffer was HBS-EP+ buffer (GE), the regeneration buffer was 10 mM glycine (pH 2.5), and Biacore T200 (GE) was used as an analyzer.

Sequence of TNF (P01375 77-233 limits assumed): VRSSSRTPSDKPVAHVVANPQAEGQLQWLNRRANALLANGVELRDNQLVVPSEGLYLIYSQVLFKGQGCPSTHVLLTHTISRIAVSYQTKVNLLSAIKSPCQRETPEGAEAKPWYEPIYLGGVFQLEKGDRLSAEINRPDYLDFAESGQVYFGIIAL

SMILES: O=C(O)c1c(-c2cc(F)ccc2F)oc2cc(Cl)ccc2c1=O [Example 61, 2-(2,5-difluorophenyl)-3-carboxy-7-chloro-(4H)-4-benzopyranone]
- therapeutic effect on rheumatoid arthritis (pathology score) (DBA/1 mice [1]; 25, 50 and 100 mpk PO three times a week, vs negative control): remarkable therapeutic effect
- effect in comparison with etanercept (DBA/1 mice [1]; 25 mpk): non-inferior effect
- efficacy in comparison with tofacitinib (25 mpk) (DBA/1 mice [1]; 25 mpk): considerably similar efficacy
- therapeutic effect on arthritis (mean arthritis score) (DBA/1 mice [2]): therapeutic effect on arthritis was shown
- Kd (TNF): 1.44 µM

— patent US11504349B2, “Composition for preventing or treating TNF-related diseases, containing novel derivative as active ingredient, and method for inhibiting TNF activity by using same” (ILAB, priority 2017, dated 2022)
